Measurements published in patent publication US20180193414A1, “COMPOSITIONS AND METHODS FOR TREATING NEUROLOGICAL DISORDERS” (Coda Biotherapeutics, Inc., priority 2015, published 2018).

Tests used:
hM4D(Gi) DREADD = target: T1, hM4D(Gi) DREADD (Homo sapiens, UniProt P08173, A203G/Y113C); details: cited from earlier work
T1 construct: HA (N); host or cells: primary afferent nociceptors of female C57BL/6 mice transduced in vivo (intraneural AAV6-hSyn-HA-hM4D(Gi)-IRES-mCitrine), as reported by Iyer et al. 2016
T1 sequence (P08173 1-479 Y113C/A203G): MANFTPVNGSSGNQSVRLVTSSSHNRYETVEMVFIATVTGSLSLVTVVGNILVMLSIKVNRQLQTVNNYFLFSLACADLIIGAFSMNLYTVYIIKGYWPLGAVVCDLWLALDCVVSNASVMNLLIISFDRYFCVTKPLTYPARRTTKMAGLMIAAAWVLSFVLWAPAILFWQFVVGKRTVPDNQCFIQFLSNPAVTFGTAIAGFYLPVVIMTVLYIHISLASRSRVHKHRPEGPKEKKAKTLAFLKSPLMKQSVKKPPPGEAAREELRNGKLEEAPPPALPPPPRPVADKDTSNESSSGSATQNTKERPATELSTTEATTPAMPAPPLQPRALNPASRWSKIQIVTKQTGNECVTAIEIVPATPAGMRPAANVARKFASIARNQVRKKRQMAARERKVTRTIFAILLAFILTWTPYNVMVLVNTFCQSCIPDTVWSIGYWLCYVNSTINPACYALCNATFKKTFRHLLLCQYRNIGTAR

[1] = target: T2, alpha 1 GlyR(F207A-A288G) (Homo sapiens, UniProt P23415, A316G/F235A); experiment: Thermal withdrawal latency assay (infrared laser on shaved cheek) after trigeminal ganglion AAV injection; type: in vivo, Sprague-Dawley rats
T2 construct: expressed in transfected cells; host or cells: trigeminal ganglion neurons of adult Sprague-Dawley rats, transduced in vivo with AAV
T2 sequence (P23415 29-457 F235A/A316G): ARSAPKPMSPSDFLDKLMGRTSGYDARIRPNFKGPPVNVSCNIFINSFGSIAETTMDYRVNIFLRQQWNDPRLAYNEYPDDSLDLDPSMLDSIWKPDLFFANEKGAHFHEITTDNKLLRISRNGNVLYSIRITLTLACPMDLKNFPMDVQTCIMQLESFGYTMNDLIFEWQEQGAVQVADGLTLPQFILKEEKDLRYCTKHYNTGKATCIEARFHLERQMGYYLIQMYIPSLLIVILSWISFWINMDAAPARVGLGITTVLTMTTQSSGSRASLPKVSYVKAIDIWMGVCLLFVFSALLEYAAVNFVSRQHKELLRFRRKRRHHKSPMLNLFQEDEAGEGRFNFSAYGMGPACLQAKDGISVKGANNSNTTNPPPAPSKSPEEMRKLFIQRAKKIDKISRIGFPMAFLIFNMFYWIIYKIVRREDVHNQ
Protocol: On day 0, bilateral trigeminal ganglion injections of 10 microliters AAV vector containing the alpha 1 GlyR(F207A-A288G) transgene were performed in adult Sprague-Dawley rats. Two months following AAV injections, a single IP injection of ivermectin 10 mg/kg was administered to rats. The following day, rats were prepared for the thermal latency assay by shaving the fur off of their cheek, up to but not including the whisker pad. They were then placed in a 2.75 inch diameter×8 inch clear polycarbonate cylinder and allowed to acclimate to the environment. The rats naturally positioned themselves so their snout is just outside of the cylinder opening. Under video monitoring, the rats were then exposed to the beam of a 2W, infrared (808 nm) laser illumination focused to project a target size of approximately 1 mm×0.5 mm on the shaved cheek area. The rats then responded to the heat generated by the laser with an abrupt head position change (withdrawal reflex). The sequence was then repeated up to 10 trials on each side. The latency between the laser illumination onset and the head withdrawal reflex was measured from the video with video editing software allowing for frame by frame analysis.

GLYR(F207A/A288G) = target: T3, GLYR(F207A/A288G) (Homo sapiens, UniProt P23415, A316G/F235A); experiment: Pain and anxiety behavioral assays in rodent models of chronic pain (CCI or SNI); type: in vivo; details: rodents with CCI or SNI, intraganglionic or intrathecal AAV6 GlyR(F207A/A288G) vector; 0.1-10.0 mg/kg per day
T3 construct: expressed in transfected cells; host or cells: rodent dorsal root or trigeminal ganglion neurons transduced in vivo with AAV6 vectors
T3 sequence (P23415 29-457 F235A/A316G): T2 sequence (P23415 29-457 F235A/A316G)
Source text: Day 0: Chronic pain is induced in rodent trigeminal ganglia or dorsal root ganglia using an established peripheral nerve injury method such as the chronic constriction injury (CCI, CO/CFA) or spared nerve injury (SNI) models. See Bennett & Xie. Pain. 1988, Decosterd & Woolf Pain. 2000, and Imamura, Kawamoto, & Nakanishi. Exp. Brain Res. 1997. In some instances, nerve injury may occur after viral vector injection.
Day 7: Intraganglionic or intrathecal injection of 10^8-10^10 vector genomes of AAV6(Y705F+Y731F+T492V)-HSYN-GLYR(F207A/A288G)-FLAG or AAV6-GLY(HSYN-GLYR(F207A/A288G)-FLAG in a volume of approximately 1.0-10 μL is performed in one or multiple dorsal root ganglia or trigeminal ganglia using published methods. See Vit, Ohara, Sundberg et al. Mol Pain. 2009 and Towne, Fischer, Kostic, et al. J Neurosci Methods. 2011, and Pertin, et al. Mol Pain. 2009.
Weeks 2-12 post CCI or SNI: Ivermectin is administered via oral gavage (P0), intraperitoneal injection (IP), subcutaneous injection (SC), or in drinking water for a final dose of 0.1-10.0 mg/kg per day. Pain and anxiety behavioral assays are performed to quantify level of analgesia using established nociception assay including operant assays, mechanical allodynia/hyperalgesia via Von Frey filaments, thermal allodynia/hyperalgesia via Hargreaves method, or anxiety behaviors via elevated plus maze. See review Odd-Geir Berge. […]

[2] = target: T4, human α-1 GlyRM(F207A+A288G) (Homo sapiens, UniProt P23415, A316G/F235A); experiment: Mechanical withdrawal threshold (von Frey, up-down method) in spared nerve injury (SNI) model; type: in vivo, mice
T4 construct: host or cells: mouse dorsal horn neurons transduced in vivo with the AAV vector
T4 sequence (P23415 29-457 F235A/A316G): T2 sequence (P23415 29-457 F235A/A316G)
Source text: The expression cassette containing a human synapsin-1 (hSYN) promoter driving expression of the human α-1 GlyRM(F207A+A288G)-FLAG cDNA was constructed using standard molecular biology techniques (see also, FIG. 5 and SEQ ID NO:1 for description of the vector). This cassette was subcloned into a self-complementary AAV bacmid, purified, transfected into Sf9 insect cells to produce recombinant bacuvlovirus, and then amplified. Sf9 cells were double infected using the amplified recombinant baculovirus containing the hSYN-GlyRM cassette and another recombinant baculovirus containing the Rep and AAV6(Y705+731F+T492V) Cap genes to produce recombinant AAV vectors. These vectors were purified, viral titer was determined using qPCR (2.15e^13 vg/ml), and SDS-PAGE was used to verify the purity of AAV vectors (Virovek).
A dorsal hemilaminectomy was made at the level of the lumbar enlargement to expose two segments (about 1.5-2 mm) of lumbar spinal cord, after which the dura mater was incised and reflected. The viral solution was loaded into a glass micropipette (prefilled with mineral oil). The micropipette was connected to a manual micro-injector mounted on a stereotactic apparatus. The viral solution was targeted to the dorsal horn (left side). Along the rostro-caudal axis within the exposed region, 6 injections of 240 nl each were performed, in an equidistant linear fashion. After each injection, 1 min of resting time was observed and then the muscle layer was sutured, the skin closed with staples, and the animals were allowed to recover with heated-pad before they were returned to their home cages. Animals were perfused for histological analysis after the last behavior test.
To produce mechanical hypersensitivity in a model that mimics a neuropathic pain condition, the spared nerve injury (SNI) model, a validated model of mechanical allodynia was used (Shields et al., 2003, The Journal of Pain, 4, 465-470). This model was produced by the sectioning of the common peroneal and the sural nerves and isolating the tibial branch (see FIG. 7). Mechanical withdrawal threshold was assessed by placing mice on an elevated wire-mesh grid and stimulating the plantar surface of the hindpaw with von Frey filaments. The up-down method of Chaplan & Yaksh was used to determine mechanical thresholds before the spinal cord injection of the AAV-GlyRM. […] The hindpaw ipsilateral and contralateral to the vector injection was tested. […] Motor coordination was tested using an accelerating rotarod (Stoelting, USA) at a maximum speed of 33 rpm. The duration that the mouse spent on the rotarod was recorded, with a cut-off at 300 sec. Each mouse went through three training trials and was tested two hours later. Subsequently, all mice received a single IP injection of ivermectin (15 mg/kg or 10 mg/kg) and mechanical thresholds were again tested using the up-down method at 1, 2, 5, 7, and 13 days post SNI. […] The reversal lasted for at least 5 days. […] Animals were then perfused for histology.

Compound | mechanical withdrawal thresholds (hM4D(Gi) DREADD; hM4D+ mice (AAV6-hSyn-HA-hM4D(Gi)-IRES-mCitrine intraneural), intraperitoneal administration) | Hargreaves thresholds (thermal sensation) (hM4D(Gi) DREADD; hM4D+ mice, after administration) | average thermal withdrawal latency ([1]; rats two months after bilateral trigeminal ganglion AAV injection, day after single IP 10 mg/kg, pre-treatment average 2.69 seconds) [s] | hypoalgesic threshold shift in thermal pain sensitivity ([1]; rats, post versus pre IP 10 mg/kg) [%] | improvement in pain related behaviors or anxiety over controls (GLYR(F207A/A288G)) | duration of analgesia in the SNI model ([2]; mice injected with SWB001, single IP injection of ivermectin (15 mg/kg) (FIG. 7)) [days] | mechanical hypersensitivity (mechanical thresholds, von Frey) ([2]; mice with AAV-GlyRM injected into dorsal horn, SNI, ipsilateral hindpaw, single IP injection 15 mg/kg) | mechanical thresholds after repeat dose ([2]; mice, SNI, AAV-GlyRM, 10 mg/kg IP on the 13th day, after thresholds had returned to post-injury baseline) | mechanical thresholds during follow-up after repeat dose ([2]; mice, SNI, AAV-GlyRM, followed for 48 hours after 10 mg/kg IP) | duration of the reversal of mechanical hypersensitivity ([2]; mice, SNI, AAV-GlyRM, single IP injection 15 mg/kg) | mechanical threshold on the contralateral side (absence of vector) ([2]; mice, contralateral hindpaw without vector, single IP injection 15 mg/kg)
C[N+]1([O-])CCN(C2=Nc3cc(Cl)ccc3Nc3ccccc32)CC1 [CNO, clozapine-N-oxide] | increased mechanical withdrawal thresholds | Strong inhibition of Hargreaves thresholds |  |  |  |  |  |  |  |  | 
ivermectin |  |  | 5.19 | 92.9 | 10%-500% | 7 to 10 | complete reversal of the mechanical hypersensitivity | recovery to non-injury baseline thresholds | thresholds remained at baseline | at least 5 days | no measurable effect
